We go through four molecules from patent publication US9284281B2, “Indication of naphtho[2,3-F]quinoxaline-7,12-dione compound in alleviating pain” (NATIONAL CENTRAL UNIVERSITY, priority 2014, dated 2016).

What all share (format): in vivo
Data set [1] deals with CD-1 mice. The data set is described as follows: Nociceptive pain: acute pain induced by pH 5.0 acid solution, mechanical hyperalgesia by von Frey filaments. The conditions noted are these: for paw withdrawal threshold (PWT): control 4.0±0 g; for effective dosage: intraplantar, acute pain induced by acid solution. Here is the method: Naphtho[2,3-f]quinoxaline-7,12-dione compound was intraplantarly injected into the right hind paws of 8 to 12-week-old CD-1 mice. 5 minutes after the injection, 25 μL of pH 5.0 acid solution was intraplantarly injected into each of the mice. About 60 minutes later, the mice were directly tested with the hypersensitivity to mechanical stimuli using von Frey filaments (Touch-Test North Coast Medical, Inc., Margan Hill, Calif.). The control group was conducted under the same conditions except it was treated with a compound-free saline. The results are shown in FIG. 1, where the injection of 25 μL of the pH 5.0 acid solution induced mechanical hyperalgesia in the right hind paw of the mice, and the paw withdrawal threshold (PWT) of these mice was 1.1±0.065 g. By injecting 2.2 μg/kg of the naphtho[2,3-f]quinoxaline-7,12-dione (NSC745887, D1) compound intraplantarly into the right hind paws of the mice, the paw withdrawal threshold of those mice recovered to 4.0±0 g (PWT of control group mice was 4.0±0 g).
25 μL of acid solution with a pH of 5.0 was injected into 8 to 12-week-old CD-1 mice in order to induce mechanical hyperalgesia. Mice injected with saline were the control group; the ones that were injected with compound only were compound group; the ones that were injected with only the acid solution were the acid group and those injected with both compound and the acid solution were the acid+compound group.
The above-mentioned 1 M of pH 5.0 solution was prepared by dissolving 1.952 g of 2-(N-morpholino)ethanesulfonic acid (MES) in 10 mL of sterilized secondary water. The pH of the solution was adjusted to 5.0 using 1N NaOH solution. Before injection, pH5.0 was diluted with saline into 10 mM.
(§1) 2.2 μg/kg of the compound was administered to the mice by intraplantar injection about 5 minutes prior to the injection of the acid solution. An hour after the injection of the acid, the hypersensitivity of the mice to mechanical stimuli was measured using von Frey filaments (Touch-Test North Coast Medical, Inc., Margan Hill, Calif.). The mice were placed in transparent plastic chambers (10×8×10 cm) on a metal mesh floor at least 30 minutes per day for 2 days to acclimatize them to the testing room prior to the test. 60 minutes after the mice were administered with the compound, the mechanical hyperalgesia was assessed through the measurement of paw withdrawal frequencies by a sequential series of von Frey filaments of weights 0.6, 1.0, 1.4, 2.0 and 4.0 g applied perpendicularly to the plantar surface of the paw. The paw was briefly stimulated with force sufficient to slightly bend the filaments and a single trial consisted of repeated applications of the von Frey filaments five times, each application lasting for about 5 seconds. The occurrence of paw withdrawal resulting from the stimulation or removing the stimulation for each trial was quantified as a percentage response frequency for each filament. When the frequency was more than 50%, the weight of the von Frey filaments was determined as the paw withdrawal threshold (PWT). To make sure all the mice were under normal physical conditions, all housing conditions complied with general feeding standards, and the temperature and illumination were maintained in a suitable range.

In data set [2] the test system is CD-1 mice. The data set is described as follows: Neuropathic pain: chronic constriction injury (CCI) of the sciatic nerve, mechanical hyperalgesia by von Frey filaments. Particulars: for paw withdrawal threshold (PWT): one week after CCI.
From the text: The assessment of the effectiveness of the compound for alleviating neuropathic pain used the animal model of chronic constriction injury (CCI) of the sciatic nerve, which was established by Bennett and Xie (1988). After the surgery, the mice developed long-lasting hypersensitivity to mechanical stimuli (chronic mechanical hyperalgesia), even being lightly touched. The mechanical hyperalgesia test was used to evaluate the analgesic effect of the compound.
The mice, after a week following the surgery, were intraplantarly injected with a series of different dosages of the naphtho[2,3-f]quinoxaline-7,12-dione compound, […], or the mice were injected with 2.2 μg/kg of compound intrathecally, or with 43 μg/kg of the compound intraperitoneally. The hypersensitivity to mechanical stimuli was measured using von Frey filaments at 60 minutes after the injection. The mice injected with saline following surgery were the control group and the other mice injected with gabapentin following surgery were the positive control group.
as §1
According to the method described by Bennett and Xie, Pain, 1988, 33, 87-107, 8 to 12-week-old CD-1 mice were subjected to the chronic constriction injury (CCI) of the sciatic nerve, which is an animal model inducing chronic neuropathic pain. To anesthetize the mice, each of the mice was injected with 240 mg/kg of 2,2,2-tribromoethanol (Avertin). Then three ligatures were loosely tied around the sciatic nerve of the mouse with chromic gut. The surgical procedure for the Sham (non ligation) control group was identical to that mentioned above except that the sciatic nerves were not ligated. A week after the mice in the experimental (CCI+compound) group had chronic constriction injury of sciatic nerves, the compound was intraplantarly, intrathecally, or intraperitoneally injected into the mice. 60 minutes after the injection, the mice were directly subjected to the hypersensitivity test to mechanical stimuli. The mice under the surgery treated with saline were the CCI group; the mice treated with gabapentin were the positive control (CCI+Gabapentin) group.

The test system of another data set is mice. The data set is described as follows: Inflammatory pain: chronic inflammatory pain induced by Complete Freund's Adjuvant (CFA), mechanical hyperalgesia by von Frey filaments. Here is the method:
When 50% CFA was intraplantarly injected into the mouse, paw edema and chronic mechanical hyperalgesia were developed in the tested mice. Different dosages of the naphtho[2,3-f]quinoxaline-7,12-dione compound, 0.22, 2.2, 22 μg/kg were intraplantarly injected into mouse hindpaw, followed by 50% CFA injection. At 60 minutes after the CFA injection, the hypersensitivity of the mice to mechanical stimuli was measured using von Frey filaments.
as §1
To induce paw edema and chronic inflammatory pain, 25 μL of 50% Complete Freund's Adjuvant (CFA) in saline was intraplantarly injected into the right hind paw of the mouse. […] 60 minutes after the CFA injection, the hypersensitivity to mechanical stimuli was measured using von Frey filaments.

The mark [3] stands for this setting: 2.2 μg/kg intraplantar once every week for three weeks, FIG. 3.

Molecules are shown by their SMILES.

On to `Cc1nc2ccc3c(c2nc1C)C(=O)c1ccccc1C3=O` [C3, 2,3-dimethylnaphtho[2,3-f]quinoxaline-7,12-dione], for which the “paw withdrawal threshold (PWT)” value in the data set with CD-1 mice [1] (24 μg/kg intraplantar, then pH 5.0 acid solution, FIG. 1B) was 2.0 ± 0 g; with CD-1 mice [2] (24 μg/kg intraplantar, FIG. 2B), 1.4 g; with mice (24 μg/kg intraplantar before CFA, FIG. 4B) it was 1.4 g. In addition, the effective dosage in the data set with CD-1 mice [1] was 24 µg/kg.
Turning to `O=C1c2ccccc2C(=O)c2c1ccc1nccnc21` [D1, naphtho[2,3-f]quinoxaline-7,12-dione], the “paw withdrawal threshold (PWT)” value in the data set on CD-1 mice [1] (2.2 μg/kg intraplantar, 5 min before pH 5.0 acid solution, about 60 min later, acid only 1.1±0.065 g) was found to be 4.0 ± 0 g; with CD-1 mice [2] (2.2 μg/kg intraplantar, 60 min after injection, FIG. 2A, CCI 0.9±0.23 g, control 3.6±0.29 g), 3.3 ± 0.67 g; in the data set with CD-1 mice [2] (2.2 μg/kg intraplantar, FIG. 2B, CCI 0.9±0.23 g) it was 2.0 ± 0 g; in the data set with CD-1 mice [2] (2.2 μg/kg intrathecal, FIG. 2A), 2.0 g; in the data set with CD-1 mice [2] (22 μg/kg intraplantar, FIG. 2A), 3.3 ± 0.67 g; with mice (2.2 μg/kg intraplantar before 50% CFA, 60 min after CFA, FIG. 4A, CFA 0.4±0.033 g, control 3.8±0.171 g), 1.1 ± 0.15 g. Moreover, the “paw withdrawal threshold (PWT)” value is 2.0 ± 0.411 g in the data set on mice (22 μg/kg intraplantar before 50% CFA, FIG. 4A) and 2.3 g with mice (22 μg/kg intraplantar before CFA, FIG. 4B, control 3.8±0.171 g). The molecule also yielded an effective dosage in the data set on CD-1 mice [1] of 2.2 µg/kg. Besides, the “paw withdrawal threshold (PWT), compound without acid solution” value in the data set with CD-1 mice [1] (sole injection of the compound without the acid solution, did not induce pain) came to 4.0 ± 0 g. Also, the “tolerance to the compound” value in the data set with CD-1 mice [2] (2.2 μg/kg intraplantar once every week for three weeks) was “no obvious indication that the mice developed tolerance”. Moreover, the “paw withdrawal threshold (PWT), first week” value with CD-1 mice [2] (setting [3]) was determined as 3.3 ± 0.67 g. In addition, in the data set with CD-1 mice [2] (setting [3]), the “paw withdrawal threshold (PWT), second week” value was 3.3 ± 0.67 g. In addition, the “paw withdrawal threshold (PWT), third week” value in the data set on CD-1 mice [2] (setting [3]) turned out to be 3.0 ± 0.1 g. Further, the “inhibition of mechanical hyperalgesia induced by CCI” value in the data set on CD-1 mice [2] (43 μg/kg intraperitoneal) was “completely inhibited mechanical hyperalgesia”.
`O=C1c2ccccc2C(=O)c2c1ccc1[nH]c(=O)c(=O)[nH]c21` [D2, naphtho[2,3-f]quinoxaline-2,3,7,12(1H,4H)-tetraone]: the “paw withdrawal threshold (PWT)” value in the data set on CD-1 mice [1] (24.3 μg/kg intraplantar, then pH 5.0 acid solution, FIG. 1C) came to 4.0 ± 0 g; in the data set on CD-1 mice [2] (24.3 μg/kg intraplantar, FIG. 2B), 2.0 ± 0 g; with mice (24.3 μg/kg intraplantar before CFA, FIG. 4B) it was 1.0 g. Further, the effective dosage in the data set with CD-1 mice [1] was 24.3 µg/kg.
Consider `NCC1(CC(=O)O)CCCCC1` [gabapentin, reference compound], for which the “dose required to inhibit chronic mechanical hyperalgesia caused by CCI” value in the data set with CD-1 mice [2] (intraperitoneal injection) is “at least 15,000 μg/kg”.
